Data taken from ChEMBL document CHEMBL1131435, “Biphenylsulfonamide endothelin antagonists: structure-activity relationships of a series of mono- and disubstituted analogues and pharmacology of the orally active endothelin antagonist 2'-amino-N- (3,4-dimethyl-5-isoxazolyl)-4'-(2-methylpropyl)[1, 1'-biphenyl]-2-sulfonamide (BMS-187308)” (J Med Chem, 1998).
Where a SMILES comes first, the peptide text is derived from it.

Tests used:
Endothelin-1 receptor = target: T1, Endothelin-1 receptor (Rattus norvegicus, UniProt P26684); test: Ability to inhibit binding of [125I]ET1 to membranes prepared from A10 rat thoracic aorta smooth muscle Endothelin A receptor; format: tissue-based
T1 sequence (P26684 whole entry): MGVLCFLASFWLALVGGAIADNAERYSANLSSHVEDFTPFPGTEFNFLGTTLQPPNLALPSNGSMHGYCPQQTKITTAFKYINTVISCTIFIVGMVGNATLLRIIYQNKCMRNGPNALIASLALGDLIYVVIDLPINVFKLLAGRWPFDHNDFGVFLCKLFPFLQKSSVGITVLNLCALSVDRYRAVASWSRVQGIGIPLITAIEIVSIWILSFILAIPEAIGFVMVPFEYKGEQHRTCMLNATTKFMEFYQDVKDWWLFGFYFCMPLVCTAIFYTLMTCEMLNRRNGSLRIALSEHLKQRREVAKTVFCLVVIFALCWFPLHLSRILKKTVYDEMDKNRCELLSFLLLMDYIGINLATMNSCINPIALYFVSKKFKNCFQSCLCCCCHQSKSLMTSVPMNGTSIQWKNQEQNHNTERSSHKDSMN

[1] = target: T2, Endothelin receptor type B (Rattus norvegicus, UniProt P21451); test: Ability to inhibit binding of [125I]-ET-1 to membranes prepared from […] rat cerebellum (Endothelin B receptor); format: tissue-based
T2 sequence (P21451 whole entry): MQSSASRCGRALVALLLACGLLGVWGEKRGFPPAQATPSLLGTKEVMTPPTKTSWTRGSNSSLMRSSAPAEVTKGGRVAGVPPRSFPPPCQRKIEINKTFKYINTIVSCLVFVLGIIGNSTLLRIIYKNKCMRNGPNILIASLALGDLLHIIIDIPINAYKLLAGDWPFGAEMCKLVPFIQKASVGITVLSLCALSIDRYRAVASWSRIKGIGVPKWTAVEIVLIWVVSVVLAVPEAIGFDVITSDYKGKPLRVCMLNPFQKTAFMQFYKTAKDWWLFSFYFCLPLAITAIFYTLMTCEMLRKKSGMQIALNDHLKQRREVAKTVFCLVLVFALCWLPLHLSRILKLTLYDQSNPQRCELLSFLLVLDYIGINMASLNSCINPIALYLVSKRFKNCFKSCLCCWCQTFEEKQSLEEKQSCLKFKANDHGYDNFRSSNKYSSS

Cc1noc(NS(=O)(=O)c2ccccc2-c2ccc(CC(C)C)cc2)c1C
Ki (Endothelin-1 receptor): 18 nM | Ki [1]: 1700 nM

Cc1noc(NS(=O)(=O)c2ccccc2-c2ccc(CC(C)C)cc2N)c1C
Ki (Endothelin-1 receptor): 4.7 nM | Ki [1]: 1700 nM

CCCNc1cc(CC(C)C)ccc1-c1ccccc1S(=O)(=O)Nc1onc(C)c1C
Ki (Endothelin-1 receptor): 29 nM | Ki [1]: 3700 nM

Cc1noc(NS(=O)(=O)c2ccccc2Oc2ccccc2)c1C
Ki (Endothelin-1 receptor): 2100 nM

COc1cc(CC(C)C)ccc1-c1ccccc1S(=O)(=O)Nc1onc(C)c1C
Ki (Endothelin-1 receptor): 74 nM | Ki [1]: 54000 nM

Cc1noc(NS(=O)(=O)c2ccc(NC(=O)CN)cc2-c2ccc(CC(C)C)cc2)c1C
Ki (Endothelin-1 receptor): 1200 nM | Ki [1]: 7400 nM

Cc1noc(NS(=O)(=O)c2ccccc2-c2ccc(CC(C)C)cc2C(=O)O)c1C
Ki [1]: 26000 nM

Cc1cccc(-c2ccc(CC(C)C)cc2)c1S(=O)(=O)Nc1onc(C)c1C
Ki (Endothelin-1 receptor): 1300 nM | Ki [1]: 19000 nM

Cc1noc(NS(=O)(=O)c2ccccc2-c2ccc(N(C)C(C)C)cc2)c1C
Ki (Endothelin-1 receptor): 60 nM | Ki [1]: 20000 nM

Cc1noc(NS(=O)(=O)c2cc(O)ccc2-c2ccc(CC(C)C)cc2)c1C
Ki (Endothelin-1 receptor): 500 nM | Ki [1]: 24000 nM

CNC(=O)Nc1cc(CC(C)C)ccc1-c1ccccc1S(=O)(=O)Nc1onc(C)c1C
Ki (Endothelin-1 receptor): 43 nM | Ki [1]: 5400 nM

Cc1noc(NS(=O)(=O)c2cccc(OCCO)c2-c2ccc(CC(C)C)cc2)c1C
Ki (Endothelin-1 receptor): 2.7 nM | Ki [1]: 2300 nM

CCCc1ccc(-c2ccccc2S(=O)(=O)Nc2onc(C)c2C)cc1
Ki (Endothelin-1 receptor): 28 nM | Ki [1]: 15000 nM

CC(=O)Nc1ccc(S(=O)(=O)Nc2onc(C)c2C)c(-c2ccc(CC(C)C)cc2)c1
Ki [1]: 9800 nM

CC(C)Cc1ccc(-c2ccccc2S(=O)(=O)Nc2ccc(Cl)nn2)cc1
Ki (Endothelin-1 receptor): 400 nM | Ki [1]: 44000 nM

CCNc1cc(CC(C)C)ccc1-c1ccccc1S(=O)(=O)Nc1onc(C)c1C
Ki (Endothelin-1 receptor): 6.3 nM | Ki [1]: 1400 nM

Cc1[n-][o+]c(NS(=O)(=O)c2ccccc2-c2ccc(CC(C)C)cc2)c1[N+](=O)[O-]
Ki [1]: 30000 nM

Cc1noc(NS(=O)(=O)c2ccccc2C(F)(F)F)c1C
Ki (Endothelin-1 receptor): 700 nM

Cc1noc(NS(=O)(=O)c2ccccc2-c2ccccc2CO)c1C
Ki (Endothelin-1 receptor): 40 nM | Ki [1]: > 200000 nM

Cc1noc(NS(=O)(=O)c2ccccc2-c2ccc(CC(C)C)cc2N(C)C)c1C
Ki (Endothelin-1 receptor): 330 nM | Ki [1]: > 100000 nM

Cc1noc(NS(=O)(=O)c2ccccc2-c2ccc(CC(C)C)cc2NC(C)C)c1C
Ki (Endothelin-1 receptor): 34 nM | Ki [1]: 2900 nM

Cc1noc(NS(=O)(=O)c2ccccc2-c2ccc(CC(C)C)cc2CNC=O)c1C
Ki (Endothelin-1 receptor): 2 nM | Ki [1]: 1200 nM

CCOC(=O)c1c(C)noc1NS(=O)(=O)c1ccccc1-c1ccc(CC(C)C)cc1
Ki (Endothelin-1 receptor): 7200 nM | Ki [1]: 42000 nM

Cc1[n-][o+]c(NS(=O)(=O)c2ccccc2[N+](=O)[O-])c1C
Ki (Endothelin-1 receptor): 3500 nM

CCCCc1ccc(-c2ccccc2S(=O)(=O)Nc2onc(C)c2C)cc1
Ki (Endothelin-1 receptor): 37 nM | Ki [1]: 1900 nM

Cc1noc(NS(=O)(=O)c2ccccc2-c2ccc(CC(C)C)cc2)c1Cc1ccccc1
Ki (Endothelin-1 receptor): 6400 nM | Ki [1]: > 200000 nM

Cc1noc(NS(=O)(=O)c2ccccc2-c2ccc(C(C)(C)C)cc2)c1C
Ki (Endothelin-1 receptor): 61 nM | Ki [1]: 15000 nM

Cc1noc(NS(=O)(=O)c2ccccc2-c2ccccc2)c1C
Ki [1]: > 200000 nM

Cc1noc(NS(=O)(=O)c2ccccc2C(C)C)c1C
Ki (Endothelin-1 receptor): 600 nM

Cc1noc(NS(=O)(=O)c2ccc(NC(=O)c3ccccc3)cc2-c2ccc(CC(C)C)cc2)c1C
Ki (Endothelin-1 receptor): 5800 nM | Ki [1]: 38000 nM

Cc1noc(NS(=O)(=O)c2ccccc2-c2ccc(NC(C)C)cc2)c1C
Ki (Endothelin-1 receptor): 50 nM | Ki [1]: 17000 nM

Cc1noc(NS(=O)(=O)c2ccccc2-c2ccc(CC(C)C)cc2NCCO)c1C
Ki (Endothelin-1 receptor): 6.4 nM | Ki [1]: 1600 nM

Cc1noc(NS(=O)(=O)c2ccccc2-c2ccc(CCC(C)C)cc2)c1C
Ki (Endothelin-1 receptor): 80 nM | Ki [1]: 30000 nM

Cc1noc(NS(=O)(=O)c2ccccc2-c2ccc(OC(C)C)cc2)c1C
Ki (Endothelin-1 receptor): 17 nM | Ki [1]: 1500 nM

Cc1noc(NS(=O)(=O)c2ccccc2-c2ccc(OCC(C)C)cc2)c1C
Ki (Endothelin-1 receptor): 32 nM | Ki [1]: 2800 nM

Cc1noc(NS(=O)(=O)c2ccccc2-c2ccccc2N)c1C
Ki (Endothelin-1 receptor): 16 nM | Ki [1]: > 200000 nM

Cc1noc(NS(=O)(=O)c2ccccc2-c2ccc(CC(C)C)cc2NC=O)c1C
Ki (Endothelin-1 receptor): 17 nM | Ki [1]: 6900 nM

Cc1noc(NS(=O)(=O)c2ccccc2-c2ccc(SC(C)C)cc2)c1C
Ki (Endothelin-1 receptor): 39 nM | Ki [1]: 5700 nM

Cc1noc(NS(=O)(=O)c2ccccc2-c2ccc(C(C)C)cc2)c1C
Ki (Endothelin-1 receptor): 50 nM | Ki [1]: 19000 nM

Cc1noc(NS(=O)(=O)c2ccccc2-c2ccc(C(=O)O)cc2)c1C
Ki [1]: > 200000 nM

Cc1noc(NS(=O)(=O)c2ccccc2-c2cccc(N(C)C)c2)c1C
Ki (Endothelin-1 receptor): 112 nM | Ki [1]: > 200000 nM

Cc1noc(NS(=O)(=O)c2cc(OCc3ccccc3)ccc2-c2ccc(CC(C)C)cc2)c1C
Ki (Endothelin-1 receptor): > 20000 nM | Ki [1]: > 200000 nM

Cc1noc(NS(=O)(=O)c2ccccc2-c2ccc(N(C)C)cc2)c1C
Ki (Endothelin-1 receptor): 54 nM | Ki [1]: 6000 nM

COc1cc(OC)nc(NS(=O)(=O)c2ccccc2-c2ccc(CC(C)C)cc2)n1
Ki (Endothelin-1 receptor): 3900 nM | Ki [1]: 50000 nM

Cc1noc(NS(=O)(=O)c2ccccc2-c2ccc(CC(C)C)cc2F)c1C
Ki (Endothelin-1 receptor): 20 nM | Ki [1]: 12000 nM

Cc1noc(NS(=O)(=O)c2ccccc2-c2ccc(CC(C)C)cc2NCC(=O)O)c1C
Ki (Endothelin-1 receptor): 89 nM | Ki [1]: 12000 nM

Cc1ccc(-c2ccccc2S(=O)(=O)Nc2onc(C)c2C)cc1
Ki (Endothelin-1 receptor): 55 nM | Ki [1]: 23000 nM

Cc1noc(NS(=O)(=O)c2ccccc2-c2cccc(CC(C)C)c2)c1C
Ki (Endothelin-1 receptor): 190 nM | Ki [1]: 5600 nM

Cc1cc(CC(C)C)ccc1-c1ccccc1S(=O)(=O)Nc1onc(C)c1C
Ki (Endothelin-1 receptor): 5 nM | Ki [1]: 19000 nM

Cc1noc(NS(=O)(=O)c2ccc(NCC(=O)O)cc2-c2ccc(CC(C)C)cc2)c1C
Ki (Endothelin-1 receptor): 550 nM | Ki [1]: 1900 nM

Cc1noc(NS(=O)(=O)c2ccccc2-c2ccc(CC(C)(C)C)cc2)c1C
Ki (Endothelin-1 receptor): 110 nM | Ki [1]: 4100 nM

COc1ccc(S(=O)(=O)Nc2onc(C)c2C)c(-c2ccc(CC(C)C)cc2)c1
Ki (Endothelin-1 receptor): 370 nM | Ki [1]: 6200 nM

Cc1noc(NS(=O)(=O)c2ccc(N)cc2-c2ccc(CC(C)C)cc2)c1C
Ki (Endothelin-1 receptor): 14 nM | Ki [1]: 2100 nM

Cc1noc(NS(=O)(=O)c2ccccc2-c2ccccc2N(C)C)c1C
Ki (Endothelin-1 receptor): 103 nM | Ki [1]: > 200000 nM

COc1cccc(S(=O)(=O)Nc2onc(C)c2C)c1-c1ccc(CC(C)C)cc1
Ki (Endothelin-1 receptor): 16 nM | Ki [1]: 2000 nM

COc1ccc(-c2ccccc2S(=O)(=O)Nc2onc(C)c2C)cc1
Ki (Endothelin-1 receptor): 33 nM | Ki [1]: 250000 nM

Cc1noc(NS(=O)(=O)c2ccccc2-c2ccc(CC(C)C)cc2O)c1C
Ki (Endothelin-1 receptor): 8 nM | Ki [1]: 9800 nM

Cc1noc(NS(=O)(=O)c2ccccc2-c2ccc(CC(C)C)cc2CN)c1C
Ki (Endothelin-1 receptor): 100 nM | Ki [1]: 9600 nM

Cc1noc(NS(=O)(=O)c2ccccc2-c2cccc(N)c2)c1C
Ki (Endothelin-1 receptor): 62 nM | Ki [1]: > 200000 nM

Cc1onc(NS(=O)(=O)c2ccccc2-c2ccc(CC(C)C)cc2)c1C
Ki (Endothelin-1 receptor): 13 nM | Ki [1]: 2000 nM

Cc1noc(NS(=O)(=O)c2ccccc2F)c1C
Ki (Endothelin-1 receptor): 4700 nM

CC(C)C[C@@H]1NC(=O)[C@@H](C(C)C)NC(=O)[C@@H]2CCCN2C(=O)[C@@H](CC(=O)O)NC(=O)[C@@H](Cc2c[nH]c3ccccc23)NC1=O [BQ-123] (HELM PEPTIDE1{L.[dW].[dD].P.[dV]}$PEPTIDE1,PEPTIDE1,1:R1-5:R2$$$V2.0)
Ki (Endothelin-1 receptor): 40 nM
